Source: patent US10835533B2, “1 -((3S,4R)-4-(3-fluorophenyl)-1-(2-methoxyethyl)pyrrolidin-3-yl)-3-(4-methyl-3-(2-methylpyrimidin-5-yl)-1-phenyl-1H-pyrazol-5-yl)urea as a TrkA kinase inhibitor” (Array BioPharma Inc., priority 2014, dated 2020)

Assays:
off-target kinases = experiment: KinaseProfiler off-target kinase profiling, full kinase panel (Example H); format: biochemical; settings: 10 μM, ATP near the Km
Experimental: Compound 1 was tested for off-target kinase activity at a concentration of 10 μM by Millipore, Inc. in their KinaseProfiler™ service against all the kinases available in their full kinase panel. Compound 1 was run in duplicate at a concentration of ATP near the Km for each individual kinase according to Millipore's specifications. Data are reported as percent of control (POC) and are the average of the two replicates.

[1] = molecular target: T1, GST-tagged recombinant human p38α (Homo sapiens, UniProt Q16539); experiment: p38α LanthaScreen Eu Kinase Binding Assay (Example G); settings: TrkA versus p38α binding
T1 construct: GST-tagged cytoplasmic domain from Invitrogen, Catalog No. PV3305; purchased Invitrogen PV3305
Experimental: The p38α binding activity of Compound 1 was determined in a p38α LanthaScreen™ Eu Kinase Binding Assay. […] Three fold serial dilutions of Compound 1 in DMSO were added to a final percentage of 2% DMSO. After 60-minute incubation at 22° C., the reaction was measured using the EnVision multimode plate reader (PerkinElmer) via TR-FRET dual wavelength detection at […]. The percent of control was calculated using a ratiometric emission factor. The IC50 value was determined by fitting a four parameter model to the percent of control data.

Ret = molecular target: T2, Ret (Homo sapiens, UniProt P07949); experiment: KinaseProfiler kinase profiling; format: biochemical; settings: 10 μM, ATP near Km
T2 construct: purchased Millipore, Inc. (KinaseProfiler service)
Outline: (§1)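 Screened once at 10 μM, n = 2, against the full available panel; ATP concentration was chosen near each kinase's Km. Mean POC reported.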

JAK2 = molecular target: T3, JAK2 (Homo sapiens, UniProt O60674); experiment: KinaseProfiler kinase profiling; format: biochemical; settings: 10 μM, ATP near Km
T3 construct: purchased Millipore, Inc. (KinaseProfiler service)
T3 sequence (O60674 whole entry): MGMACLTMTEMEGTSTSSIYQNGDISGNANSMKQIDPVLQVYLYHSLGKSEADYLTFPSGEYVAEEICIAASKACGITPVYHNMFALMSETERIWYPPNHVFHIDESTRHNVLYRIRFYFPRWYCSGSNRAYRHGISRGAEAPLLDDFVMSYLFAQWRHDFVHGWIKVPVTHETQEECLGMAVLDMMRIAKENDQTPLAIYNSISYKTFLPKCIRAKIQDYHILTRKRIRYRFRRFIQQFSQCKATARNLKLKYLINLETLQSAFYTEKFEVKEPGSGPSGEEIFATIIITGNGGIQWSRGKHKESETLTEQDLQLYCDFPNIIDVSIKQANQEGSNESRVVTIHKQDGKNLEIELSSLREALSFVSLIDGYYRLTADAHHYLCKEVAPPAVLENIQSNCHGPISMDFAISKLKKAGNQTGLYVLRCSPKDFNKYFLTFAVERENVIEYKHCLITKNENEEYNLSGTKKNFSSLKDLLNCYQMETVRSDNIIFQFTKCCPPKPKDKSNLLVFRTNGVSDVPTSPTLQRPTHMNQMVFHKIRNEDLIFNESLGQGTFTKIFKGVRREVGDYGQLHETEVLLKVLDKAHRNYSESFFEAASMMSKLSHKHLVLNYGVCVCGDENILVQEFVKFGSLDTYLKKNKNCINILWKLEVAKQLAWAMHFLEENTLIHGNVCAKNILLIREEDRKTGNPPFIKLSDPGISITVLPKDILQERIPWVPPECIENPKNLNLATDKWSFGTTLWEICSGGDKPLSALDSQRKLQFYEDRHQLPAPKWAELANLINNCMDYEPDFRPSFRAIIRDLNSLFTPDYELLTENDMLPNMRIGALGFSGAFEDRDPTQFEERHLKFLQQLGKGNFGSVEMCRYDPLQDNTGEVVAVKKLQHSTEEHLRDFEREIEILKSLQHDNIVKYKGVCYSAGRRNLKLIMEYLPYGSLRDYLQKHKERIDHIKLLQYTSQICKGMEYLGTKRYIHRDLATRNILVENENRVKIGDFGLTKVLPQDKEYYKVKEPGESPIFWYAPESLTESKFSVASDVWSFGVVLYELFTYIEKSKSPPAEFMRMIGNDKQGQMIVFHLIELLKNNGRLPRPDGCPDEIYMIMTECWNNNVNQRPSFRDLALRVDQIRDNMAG
Outline: as §1

DRAK1 = molecular target: T4, DRAK1 (Homo sapiens, UniProt Q9UEE5); experiment: KinaseProfiler kinase profiling; format: biochemical; settings: 10 μM, ATP near Km
T4 construct: purchased Millipore, Inc. (KinaseProfiler service)
Outline: as §1

PAK6 = molecular target: T5, PAK6 (Homo sapiens, UniProt Q9NQU5); experiment: KinaseProfiler kinase profiling; format: biochemical; settings: 10 μM, ATP near Km
T5 construct: purchased Millipore, Inc. (KinaseProfiler service)
T5 sequence (Q9NQU5 whole entry): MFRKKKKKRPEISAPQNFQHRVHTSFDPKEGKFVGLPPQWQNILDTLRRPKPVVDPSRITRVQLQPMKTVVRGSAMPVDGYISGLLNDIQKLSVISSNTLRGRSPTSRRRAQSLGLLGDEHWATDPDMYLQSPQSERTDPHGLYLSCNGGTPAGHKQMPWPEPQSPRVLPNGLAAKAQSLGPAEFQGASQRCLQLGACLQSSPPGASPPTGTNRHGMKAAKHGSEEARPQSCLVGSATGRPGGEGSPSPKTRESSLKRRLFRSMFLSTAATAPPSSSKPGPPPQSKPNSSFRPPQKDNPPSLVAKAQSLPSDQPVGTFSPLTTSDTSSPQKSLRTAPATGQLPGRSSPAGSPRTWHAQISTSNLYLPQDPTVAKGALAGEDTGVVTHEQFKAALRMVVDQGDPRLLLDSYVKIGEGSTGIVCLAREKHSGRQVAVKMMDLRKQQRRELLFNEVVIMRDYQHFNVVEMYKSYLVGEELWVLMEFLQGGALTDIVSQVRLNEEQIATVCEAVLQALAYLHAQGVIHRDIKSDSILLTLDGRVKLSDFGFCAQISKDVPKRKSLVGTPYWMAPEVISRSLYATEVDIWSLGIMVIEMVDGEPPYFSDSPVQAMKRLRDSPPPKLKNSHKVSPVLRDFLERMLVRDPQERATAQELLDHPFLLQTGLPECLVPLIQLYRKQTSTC
Outline: as §1

VRK2 = molecular target: T6, VRK2 (Homo sapiens, UniProt Q86Y07); experiment: KinaseProfiler kinase profiling; format: biochemical; settings: 10 μM, ATP near Km
T6 construct: purchased Millipore, Inc. (KinaseProfiler service)
Outline: as §1

TSSK2 = molecular target: T7, TSSK2 (Homo sapiens, UniProt Q96PF2); experiment: KinaseProfiler kinase profiling; format: biochemical; settings: 10 μM, ATP near Km
T7 construct: purchased Millipore, Inc. (KinaseProfiler service)
Outline: as §1

MAPKAP-K5 = molecular target: T8, MAPKAP-K5 (Homo sapiens, UniProt Q8IW41); experiment: KinaseProfiler kinase profiling; format: biochemical; settings: 10 μM, ATP near Km
T8 construct: purchased Millipore, Inc. (KinaseProfiler service)
Outline: as §1

AKT3 = molecular target: T9, AKT3 (Homo sapiens, UniProt Q9Y243); experiment: KinaseProfiler kinase profiling; format: biochemical; settings: 10 μM, ATP near Km
T9 construct: purchased Millipore, Inc. (KinaseProfiler service)
Outline: as §1

CDK2/cyclinE = molecular target: T10, CDK2/cyclinE (Homo sapiens, UniProt P24941); experiment: KinaseProfiler kinase profiling; format: biochemical; settings: 10 μM, ATP near Km
T10 construct: purchased Millipore, Inc. (KinaseProfiler service)
Outline: as §1

MKK6 = molecular target: T11, MKK6 (Homo sapiens, UniProt P52564); experiment: KinaseProfiler kinase profiling; format: biochemical; settings: 10 μM, ATP near Km
T11 construct: purchased Millipore, Inc. (KinaseProfiler service)
Outline: as §1

Lck = molecular target: T12, Lck (Homo sapiens, UniProt P06239); experiment: KinaseProfiler kinase profiling; format: biochemical; settings: 10 μM, ATP near Km
T12 construct: purchased Millipore, Inc. (KinaseProfiler service)
Outline: as §1

PhKgamma2 = molecular target: T13, PhKgamma2 (Homo sapiens, UniProt P15735); experiment: KinaseProfiler kinase profiling; format: biochemical; settings: 10 μM, ATP near Km
T13 construct: purchased Millipore, Inc. (KinaseProfiler service)
Outline: as §1

Pim-2 = molecular target: T14, Pim-2 (Homo sapiens, UniProt Q9P1W9); experiment: KinaseProfiler kinase profiling; format: biochemical; settings: 10 μM, ATP near Km
T14 construct: purchased Millipore, Inc. (KinaseProfiler service)
T14 sequence (Q9P1W9 whole entry): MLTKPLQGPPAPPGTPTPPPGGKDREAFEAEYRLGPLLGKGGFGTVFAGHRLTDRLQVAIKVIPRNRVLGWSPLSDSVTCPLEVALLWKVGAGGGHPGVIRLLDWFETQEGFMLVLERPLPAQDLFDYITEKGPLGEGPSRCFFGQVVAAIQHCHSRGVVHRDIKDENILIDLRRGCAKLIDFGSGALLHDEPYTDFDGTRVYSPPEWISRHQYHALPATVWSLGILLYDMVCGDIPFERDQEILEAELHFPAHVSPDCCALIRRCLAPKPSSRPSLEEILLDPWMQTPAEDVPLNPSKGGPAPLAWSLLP
Outline: as §1

WNK2 = molecular target: T15, WNK2 (Homo sapiens, UniProt Q9Y3S1); experiment: KinaseProfiler kinase profiling; format: biochemical; settings: 10 μM, ATP near Km
T15 construct: purchased Millipore, Inc. (KinaseProfiler service)
Outline: as §1

PASK = molecular target: T16, PASK (Homo sapiens, UniProt Q96RG2); experiment: KinaseProfiler kinase profiling; format: biochemical; settings: 10 μM, ATP near Km
T16 construct: purchased Millipore, Inc. (KinaseProfiler service)
Outline: as §1

IRAK4 = molecular target: T17, IRAK4 (Homo sapiens, UniProt Q9NWZ3); experiment: KinaseProfiler kinase profiling; format: biochemical; settings: 10 μM, ATP near Km
T17 construct: purchased Millipore, Inc. (KinaseProfiler service)
T17 sequence (Q9NWZ3 whole entry): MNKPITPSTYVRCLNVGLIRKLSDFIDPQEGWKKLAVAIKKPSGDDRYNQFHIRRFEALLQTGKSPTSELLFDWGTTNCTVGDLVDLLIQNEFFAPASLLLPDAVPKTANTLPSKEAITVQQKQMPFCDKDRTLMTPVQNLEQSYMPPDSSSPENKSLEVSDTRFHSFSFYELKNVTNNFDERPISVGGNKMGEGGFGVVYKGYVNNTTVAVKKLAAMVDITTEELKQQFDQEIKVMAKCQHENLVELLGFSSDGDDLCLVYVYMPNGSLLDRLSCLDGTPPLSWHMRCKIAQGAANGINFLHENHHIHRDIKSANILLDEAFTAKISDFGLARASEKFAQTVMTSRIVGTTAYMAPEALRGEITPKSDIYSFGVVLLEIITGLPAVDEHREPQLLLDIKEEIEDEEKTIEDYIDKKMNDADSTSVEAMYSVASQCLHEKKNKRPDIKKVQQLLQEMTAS
Outline: as §1

SRPK2 = molecular target: T18, SRPK2 (Homo sapiens, UniProt P78362); experiment: KinaseProfiler kinase profiling; format: biochemical; settings: 10 μM, ATP near Km
T18 construct: purchased Millipore, Inc. (KinaseProfiler service)
T18 sequence (P78362 whole entry): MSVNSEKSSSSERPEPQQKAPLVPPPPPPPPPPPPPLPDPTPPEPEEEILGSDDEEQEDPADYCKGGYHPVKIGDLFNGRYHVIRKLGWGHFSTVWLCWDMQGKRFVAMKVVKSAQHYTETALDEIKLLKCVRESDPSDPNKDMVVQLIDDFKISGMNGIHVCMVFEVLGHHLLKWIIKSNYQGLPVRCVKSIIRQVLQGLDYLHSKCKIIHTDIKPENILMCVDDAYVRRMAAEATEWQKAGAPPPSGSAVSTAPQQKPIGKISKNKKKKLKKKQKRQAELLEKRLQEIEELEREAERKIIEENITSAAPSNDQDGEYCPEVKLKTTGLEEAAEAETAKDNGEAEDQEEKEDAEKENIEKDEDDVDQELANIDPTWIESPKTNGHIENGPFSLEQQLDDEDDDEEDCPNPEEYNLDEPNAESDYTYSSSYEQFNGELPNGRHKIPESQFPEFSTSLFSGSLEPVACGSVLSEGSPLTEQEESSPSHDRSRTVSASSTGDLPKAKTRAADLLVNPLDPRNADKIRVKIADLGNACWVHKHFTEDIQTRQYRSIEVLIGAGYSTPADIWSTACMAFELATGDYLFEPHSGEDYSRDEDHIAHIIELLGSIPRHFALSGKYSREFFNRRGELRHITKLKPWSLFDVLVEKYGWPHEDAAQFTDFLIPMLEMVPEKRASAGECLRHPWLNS
Outline: as §1

MRCKbeta = molecular target: T19, MRCKbeta (Homo sapiens, UniProt Q9Y5S2); experiment: KinaseProfiler kinase profiling; format: biochemical; settings: 10 μM, ATP near Km
T19 construct: purchased Millipore, Inc. (KinaseProfiler service)
T19 sequence (Q9Y5S2 whole entry): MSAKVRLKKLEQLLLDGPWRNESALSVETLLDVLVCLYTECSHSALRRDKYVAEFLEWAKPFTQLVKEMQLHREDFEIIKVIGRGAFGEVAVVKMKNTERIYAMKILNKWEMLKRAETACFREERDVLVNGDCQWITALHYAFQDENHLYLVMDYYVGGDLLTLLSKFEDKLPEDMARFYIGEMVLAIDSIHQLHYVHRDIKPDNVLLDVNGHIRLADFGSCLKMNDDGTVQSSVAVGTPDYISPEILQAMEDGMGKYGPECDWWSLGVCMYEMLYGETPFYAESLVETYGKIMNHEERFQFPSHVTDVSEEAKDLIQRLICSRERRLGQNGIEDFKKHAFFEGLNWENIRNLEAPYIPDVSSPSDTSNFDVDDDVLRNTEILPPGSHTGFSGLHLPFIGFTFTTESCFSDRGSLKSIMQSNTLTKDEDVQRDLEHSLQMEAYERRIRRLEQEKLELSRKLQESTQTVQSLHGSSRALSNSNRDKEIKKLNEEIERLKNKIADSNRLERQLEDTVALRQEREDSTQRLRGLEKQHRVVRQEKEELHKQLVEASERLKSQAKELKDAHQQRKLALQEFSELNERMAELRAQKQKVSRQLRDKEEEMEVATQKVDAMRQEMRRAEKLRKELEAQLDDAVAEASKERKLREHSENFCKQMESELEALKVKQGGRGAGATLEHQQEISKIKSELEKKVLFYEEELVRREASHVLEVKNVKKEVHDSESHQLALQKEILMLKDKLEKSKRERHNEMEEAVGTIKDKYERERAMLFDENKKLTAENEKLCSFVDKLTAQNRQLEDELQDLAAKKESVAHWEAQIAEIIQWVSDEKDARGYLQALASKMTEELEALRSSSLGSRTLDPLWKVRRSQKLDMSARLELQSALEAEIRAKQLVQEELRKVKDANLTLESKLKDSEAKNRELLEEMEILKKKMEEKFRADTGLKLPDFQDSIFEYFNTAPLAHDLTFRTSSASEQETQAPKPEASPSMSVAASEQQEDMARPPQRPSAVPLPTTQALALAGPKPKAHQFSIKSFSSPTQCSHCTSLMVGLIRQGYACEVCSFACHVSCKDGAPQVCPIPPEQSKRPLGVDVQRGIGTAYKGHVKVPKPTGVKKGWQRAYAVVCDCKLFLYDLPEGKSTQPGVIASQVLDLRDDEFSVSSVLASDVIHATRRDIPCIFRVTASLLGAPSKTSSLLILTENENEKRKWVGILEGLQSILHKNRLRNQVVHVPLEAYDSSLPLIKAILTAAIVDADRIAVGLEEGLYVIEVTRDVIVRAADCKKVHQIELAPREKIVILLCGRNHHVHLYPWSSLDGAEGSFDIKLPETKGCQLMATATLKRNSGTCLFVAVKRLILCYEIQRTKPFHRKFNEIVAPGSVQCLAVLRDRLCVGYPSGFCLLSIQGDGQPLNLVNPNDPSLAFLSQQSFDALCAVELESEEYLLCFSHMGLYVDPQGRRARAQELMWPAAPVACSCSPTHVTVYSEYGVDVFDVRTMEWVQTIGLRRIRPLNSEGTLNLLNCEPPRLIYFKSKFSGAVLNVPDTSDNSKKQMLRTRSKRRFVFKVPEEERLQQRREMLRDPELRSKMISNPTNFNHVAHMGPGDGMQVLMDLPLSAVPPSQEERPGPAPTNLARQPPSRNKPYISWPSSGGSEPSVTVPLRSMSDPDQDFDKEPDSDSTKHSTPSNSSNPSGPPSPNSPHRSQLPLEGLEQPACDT
Outline: as §1

TrkA = experiment: Estimated inhibition of TrkA after oral dose of 10 mg/kg in rats (FIGS. 3 and 4); settings: oral dose of 10 mg/kg in rats; relative to Compound 2 and Compound 3; calculated from plasma concentration and IC50
Experimental: FIGS. 3 and 4 illustrate the estimated inhibition of TrkA for Compound 1 after an oral dose of 10 mg/kg in rats of relative to Compound 2, and for Compound 1 relative to Compound 3, respectively. The curves in FIGS. 3 and 4 were calculated using the following equation: […]
where Imin and Imax are the minimum and maximum possible inhibition of the target, respectively, IC50 is the concentration at which the target is inhibited by 50%, C is the concentration of the inhibitor, and n is the Hill slope.

For `COCCN1C[C@@H](NC(=O)Nc2c(C)c(-c3cnc(C)nc3)nn2-c2ccccc2)[C@H](c2cccc(F)c2)C1` [Compound 1, 1-((3S,4R)-4-(3-fluorophenyl)-1-(2-methoxyethyl)pyrrolidin-3-yl)-3-(4-methyl-3-(2-methylpyrimidin-5-yl)-1-phenyl-1H-pyrazol-5-yl)urea], the “activity against off-target kinases” value (off-target kinases) was “largely inactive”, the “fold more potent against TrkA than p38α” value [1] was 1000 fold and the “Avg POC” value (Ret) was 111.5 POC. The “Avg POC” value (JAK2) was 126 POC, the “Avg POC” value (DRAK1) was 129.5 POC and the “Avg POC” value (PAK6) was 114.5 POC. The “Avg POC” value (VRK2) was 96 POC, the “Avg POC” value (TSSK2) was 108.5 POC and the “Avg POC” value (MAPKAP-K5) was 89.5 POC. The “Avg POC” value (AKT3) was 113.5 POC, the “Avg POC” value (CDK2/cyclinE) was 102 POC and the “Avg POC” value (MKK6) was 107.5 POC. The “Avg POC” value (Lck) was 94 POC, the “Avg POC” value (PhKgamma2) was 108 POC and the “Avg POC” value (Pim-2) was 117.5 POC. The “Avg POC” value (WNK2) was 92.5 POC, the “Avg POC” value (PASK) was 137.5 POC and the “Avg POC” value (IRAK4) was 98 POC. For the same compound, the “Avg POC” value (SRPK2) was 96.5 POC, the “Avg POC” value (MRCKbeta) was 106.5 POC and the “estimated inhibition of TrkA” value (TrkA) was “higher”.
